Data as given in patent US11969433B2, “Compositions and methods for muscle regeneration using prostaglandin E2” (The Board of Trustees of the Leland Stanford Junior …, priority 2016, dated 2024).

What was measured:
MuSCs [1] = assay: VisionBlue metabolic viability assay; format: cell-based, mouse; settings: PGE2 1-200 ng/ml
Description: To assay proliferation, we used three different assays (hemocytometer, VisionBlue, and EdU). For each, we seeded MuSCs on flat hydrogels (hemocytometer and VisionBlue) or collagen-coated plates (EdU assay) at a density of 500 cells per cm^2 surface area. For hemocytometer cell number count, we collected cells at indicated timepoints by incubation with 0.5% trypsin in PBS for 5 min at 37° C. and quantified them using a hemocytometer at least 3 times. Additionally, we used the VisionBlue Quick Cell Viability Fluorometric Assay Kit (BioVision, catalog #K303) as a readout for cell growth in culture. Briefly, we incubated MuSCs with 10% VisionBlue in culture medium for 3 h, and measured fluorescence intensity on a fluorescence plate reader (Infinite M1000 PRO, Tecan) at Ex=530-570 nm, Em=590-620 nm. We assayed proliferation using the Click-iT EdU Alexa Fluor 555 Imaging kit (Life Technologies). Briefly, we incubated live cells with EdU (20 μM) for 1 hr prior to fixation, and stained nuclei according to the manufacturer's guidelines together with anti-MYOGENIN (Santa Cruz, catalog #sc576, 1:250) to assay differentiation. […] We quantified EdU positive cells using the MetaMorph Image Analysis software (Molecular Devices). Data analyses were blinded, where researchers performing cell scoring were unaware of the treatment condition given to sample groups analyzed.

MuSCs [2] = assay: Quantitative RT-PCR of MuSC transcripts; format: cell-based, mouse
Text: We isolated RNA from MuSCs using the RNeasy Micro Kit (Qiagen). For muscle samples, we snap froze the tissue in liquid nitrogen, homogenized the tissues using a mortar and pestle, followed by syringe and needle trituration, and then isolated RNA using Trizol (Invitrogen). We reverse-transcribed cDNA from total mRNA from each sample using the SensiFAST™ cDNA Synthesis Kit (Bioline). We subjected cDNA to RT-PCR using SYBR Green PCR Master Mix (Applied Biosystems) or TaqMan Assays (Applied Biosystems) in an ABI 7900HT Real-Time PCR System (Applied Biosystems). We cycled samples at 95° C. for 10 min and then 40 cycles at 95° C. for 15 s and 60° C. for 1 min. To quantify relative transcript levels, we used 2-ΔΔCt to compare treated and untreated samples and expressed the results relative to Gapdh. For SYBR Green qRT-PCR, we used the following primer sequences: Gapdh. forward 5′-[…]-3′ (SEQ ID NO: 1), reverse 5′-CCCTTTTGGCTCCACCCT-3′ (SEQ ID NO: 2); Hpgd, forward 5′-[…]-3′ (SEQ ID NO: 3), reverse 5′-[…]-3′ (SEQ ID NO: 4); Ptges, forward 5′-GCTGTCATCACAGGCCAGA-3′ (SEQ ID NO: 5), reverse 5′-[…]-3′ (SEQ ID NO: 6); Ptges2, forward 5′-[…]-3′ (SEQ ID NO: 7), reverse 5′-[…]-3′ (SEQ ID NO: 8); Ptger1, forward 5′ GTGGTGTCGTGCATCTGCT-3′ (SEQ ID NO: 9), reverse, 5′ […]-3′ (SEQ ID NO: 10), and Ptger2, forward 5′-[…]-3′ (SEQ ID NO: 11), reverse 5′-[…]-3′ (SEQ ID NO: 12). TaqMan Assays (Applied Biosystems) were used to quantify Pax7. Myogenin. Slco2a1 (PGT), Ptger3 and Ptger4 in samples according to the manufacturer instructions with the TaqMan Universal PCR Master Mix reagent kit (Applied Biosystems). Transcript levels were expressed relative to Gapdh levels. For SYBR Green qPCR, Gapdh qPCR was used to normalize input cDNA samples. For Taqman qPCR, multiplex qPCR enabled target signals (FAM) to be normalized individually by their internal Gapdh signals (VIC).

MuSCs [3] = assay: cAMP activity assay (cAMP-Glo); format: cell-based, mouse; settings: 1 hr PGE2 10 ng/ml
Description: MuSCs were treated with DMSO (vehicle) or PGE2 (10 ng/ml) for 1 h and cyclic AMP levels measured according to the cAMP-Glo Assay protocol optimized by the manufacturer (Promega). Each sample was assayed in triplicate and in two independent experiments.

aged MuSCs = assay: Clonal aged MuSC proliferation and death by time-lapse microscopy in hydrogel microwells; format: cell-based, mouse
Text: We assayed clonal muscle stem cell proliferation by time-lapse microscopy as previously described^5,6. Briefly, we treated isolated aged MuSCs with PGE2 (Cayman Chemical) or vehicle (DMSO) for 24 hr. After five days of growth on hydrogels, cells were reseeded at a density of 500 cells per cm^2 surface area in hydrogel microwells with 600 μm diameter. For time-lapse microscopy we monitored cell proliferation for those wells with single cells beginning 12 hr (day 0) to two days after seeding and recorded images every 3 min at 10× magnification using a PALM/AxioObserver Z1 system (Carl Zeiss MicroImaging) with a custom environmental control chamber and motorized stage. We changed medium every other day in between the acquisition time intervals. We analyzed time-lapse image sequences using the Baxter Algorithms for Cell Tracking and Lineage Reconstruction to identify and track single cells and generate lineage trees^5,6,8-10.
Viable and dead cells were distinguished in time-lapse sequences based on phase-contrast boundary and motility maintenance or loss, respectively. […] The values were estimated using the equations described in^6, and found in Table 1. We denote the proliferation rates in the two intervals p24 and p48 and the corresponding death rates d24 and d48. […] The modeled cell counts in the two time intervals are given by […]

MuSCs [4] = assay: MuSC transplantation into injured TA muscle, engraftment by bioluminescence imaging; format: in vivo, mouse; settings: cultured MuSCs, acute 1-day PGE2, 250 cells transplanted day 7 into NOD-SCID mice
[5] = aged MuSCs, 1 day PGE2, 48 h tracking
[6] = first 24 hour interval, aged MuSC clones
[7] = second 24 hour interval, aged MuSC clones

## CCCCC[C@H](O)/C=C/[C@H]1[C@H](O)CC(=O)[C@@H]1C/C=C\CCCC(=O)O [PGE2, prostaglandin E2]
MuSCs [1]
  proliferation measured by VisionBlue: Increase
MuSCs [2]; after 24 hr PGE2 treatment of MuSCs
  transcript levels of Ptger1 and Ptger4: upregulated
MuSCs [2]; aged MuSCs, 1-day pulse
  Pax7 expression in aged MuSCs: maintenance
MuSCs [3]
  intracellular cAMP: elevated
Aged MuSCs; aged MuSC clones, acute PGE2
  percent increase in dead cell count: 0.1%
Aged MuSCs; aged MuSC clones, acute PGE2, n=45 clones
  percent increase in live cell count: 5.4%
Aged MuSCs; [5]
  cell death: profound reduction
  cumulative cell numbers per clone: remarkable increase
Aged MuSCs; [6]
  Estimated death rate d24: 0.0067 per hours
  Estimated proliferation rate p24: 0.0475 per hours
Aged MuSCs; [7]
  Estimated death rate d48: 0.0012 per hours
  Estimated proliferation rate p48: 0.0538 per hours
MuSCs [4]
  young MuSC regenerative capacity assessed by BLI: enhanced by an order of magnitude
